The values that follow come from patent US8058442B2 (Technion Research and Development Foundation Ltd., priority 2002, dated 2011).

pEC50: −log10 of the molar value. Where two headings read alike, the source gives them in different places. Marks after values point to notes of the source that are not given here.

Data set [1] can be described thus: Iron chelation in solution: fluorescence dequenching of iron-quenched calcein. The note with it: Fe-CAL in HBS pH 7.4, room temperature, 1 h incubation, read-out: half maximal dequenching level. Here is the method:
Iron binding was determined by the chelator capacity for restoring the fluorescence of iron-quenched calcein (CAL), a dynamic fluorescent metallosensor. The iron-scavenging properties of the chelators were assessed in solution, by mixing iron salts with free CAL.
Iron precomplexed calcein (Fe-CAL) solutions of 1 μm (in Hepes 20 mM buffered saline, pH 7.4=HBS) were incubated in the presence of the indicated concentrations of different chelators at room temperature and the fluorescence intensity (475 nm->520 nm) followed with time in a Tecan fluorescence plate reader, using 96-well culture plates (Nunc) at 100 μl final volume. The time-dependent complexation of iron from Fe-CAL by the chelators was followed by fluorescence dequenching. The fluorescence intensity attained after 1 h incubation is shown as a function of the chelator concentration.
The corresponding half maximal dequenching level for the corresponding chelator was (in μM) (rank order from the fastest acting to the slowest): […]

Data set [2] in a line: n-octanol/water shake-flask distribution coefficient. Format: physicochemical. The note with it: for D in 0.01N HCl / D in 0.01N NaOH / D in H2O: distribution ratio D = Corg/Caq. The text has this: The partition coefficient (Pow) or the distribution ratio (Dow) between octanol and water are most commonly used measures of the hydrophobicity of compounds. Dow can depend on the concentration of solute, but at reasonably low concentrations. If the solute is in the same form in both phases, Dow becomes constant and is called the partition coefficient Pow. Pow plays an important role in determining the physico-chemical properties and the behaviour of numerous organic compounds in biological systems. Pow is applied to quantitative structure-activity relationship studies, and as a measure of hydrophobicity. All the partition measurements are carried out using a 1-octanol/water shake-flask procedure (Leo, A J. 1991, “Hydrophobic parameter: measurement and calculation”, Methods Enzymol. 202:544-91) or simply by the elution time of solute from HPLC column. Thereafter, the transport properties of the iron-complexes are examined in the water/lipid membrane system (liposomes), which mimics biomembranes much better than the octanol/water system (Breuer et al, 1995).
1-Octanol (Riedel-deHaën, synthesis grade (250-270 nm abs.<0.06) and glass distilled deionized water were used as the partitioning solutions. A Hewlett-Packard 8450A diode array spectrophotometer was used for the quantitative determination of the tested com-pounds in the standard solutions and in the partitioned solutions. The aqueous phase stock solutions were shaken with an excess of 1-octanol to presaturate them and were then allow-ed to stand overnight before use. The 1-octanol stock solutions were also presaturated with 10 mM NaOH and allowed to settle overnight. The experiments were performed in 10-ml stoppered centrifuge tubes. The tubes were inverted gently for 5 min and then, to assure complete phase separation, they were centrifuged for 20 min at 1,000-2,000 g. The aqueous and organic phases were removed separately and analyzed by UV spectrophotometry.
Lipophilicity plays an important role in drug absorption and distribution. The logarithm of the n-octanol/water distribution coefficients (logD) is the most commonly used measure of the lipophilicity of a drug candidate. Here we used an n-octanol/water shake-flask procedure to determine logD. […] In acidic and basic solution, all the test compounds have low log D values, which refer to a good hydrophilicity. This can be explained by the formation of oxinium chloride (in acid) and sodium oxinate (in base) derivatives.

The subject of data set [3] is human erythroleukemia K562 cells. Put plainly: Iron permeation of the chelators into calcein-loaded K562 cells. Type of data set: cell-based. The note with it: 5 μM chelator, 37° C. Here is the method: The iron-scavenging properties of the chelators were assessed in human erythroleukemia K562 cells, by loading with the permeant CAL-AM probe, in situ formation of free CAL, and binding of cytosolic labile iron. Calcein-AM readily passes through the cell membrane of viable cells because of the enhanced hydrophobicity as compared to Calcein. When Calcein-AM permeates into the cytoplasm, it is hydrolyzed by esterases in cells to the parent Calcein, a pH-independent, cytosolic fluorescent marker, which remains inside of the cell. The time-dependent recovery of fluorescence in the presence of a given chelator provided a continuous measure for the capacity of the chelator to access the iron/CAL-containing compartment.
Calcein uptake and intracellular fluorescence were determined as follows: K562 erythroleukemia cells were preloaded with calcein (CAL) by incubation with […] of the fluorescent probe CAL-AM for 5 min at 37° C., washed and incubated in HBS medium containing anti-CAL antibodies in order to quench traces of extracellular-associated fluorescence. The suspensions were placed in 96-well plates (100 μl final volume) and analyzed as described above while maintaining the system at 37° C. At the indicated time, the indicated chelator was added so as to reach a final 5 μM concentration.
The values of half maximal time (sec) and fraction of fluorescence recovery were: […]

As usually defined, the logD is lipophilicity at a set pH, counting ionised and neutral species.

For `CCOC(=O)C(Cc1ccc(O)c2ncccc12)(NC(C)=O)C(=O)OCC`, in data set [1] (FIG. 1A), the pEC50 was 5.30. The pH-dependent lipophilicity (logD) was 2.19 in data set [2] (H2O, read-out: LogD in H2O); -1.37 in data set [2] (pH 2, 0.01N HCl, read-out: LogD in 0.01N HCl); -1.01 in data set [2] (pH 12, 0.01N NaOH, read-out: LogD in 0.01N NaOH). Also, the “D in 0.01N HCl” value in data set [2] (0.01N HCl) stood at 0.043. The “D in 0.01N NaOH” value in data set [2] (0.01N NaOH) was 0.097. The “D in H2O” value in data set [2] (H2O) turned out to be 155.68.

With `NC(Cc1ccc(O)c2ncccc12)C(=O)O` (racemic) [HLM8, DL-3-(8-hydroxyquinolin-5-yl)alanine], the pEC50 in data set [1] (FIG. 1A) was 5.22. Also, the half maximal time in data set [3] (FIG. 2A) is 600 s. Besides, the logD is below -2 in data set [2], below -2 in data set [2] (pH 2) and -1.7 in data set [2] (pH 12). For the same molecule, in data set [2] (0.01N HCl), the “D in 0.01N HCl” value worked out at 0.0031. Further, the “D in 0.01N NaOH” value in data set [2] (0.01N NaOH) is on record as 0.020. In data set [2] (H2O), the “D in H2O” value worked out at 0.0049.

As to `CCOC(=O)C(N)Cc1ccc(O)c2ncccc12` (racemic) [HLM9, DL-3-(8-hydroxyquinolin-5-yl)alanine ethyl ester], in data set [1] (FIG. 1A), the pEC50 is 5.14. For the same molecule, the half maximal time in data set [3] (FIG. 2A) is 200 s. For the same molecule, the logD in data set [2] is -1.7; in data set [2] (pH 5.64), -1.42; in data set [2] (pH 12), below -2. In addition, the “D in 0.01N NaOH” value in data set [2] (0.01N NaOH) is recorded as 0.0014. Moreover, in data set [2] (H2O), the “D in H2O” value was found to be 0.018. For the same molecule, the D in data set [2] (phosphate buffer (pH = 5.64), printed in the 0.01N HCl column) is 0.038^b.

Consider `Cc1c(O)c(=O)ccn1C` [Compound L1, 1,2-dimethyl-3-hydroxy-pyridin-4-one, reference compound], for which the pEC50 in data set [1] (FIG. 1A) was 5.08; in data set [1] (FIG. 1B) it was 5.08; in data set [1] (FIG. 1C), 5.18.

For the molecule `N[C@H](Cc1ccc(O)c2ncccc12)C(=O)O` [Compound M9, D-3-(8-hydroxyquinolin-5-yl)alanine], the pEC50 in data set [1] (FIG. 1B) was 5.01.

`N[C@@H](Cc1ccc(O)c2ncccc12)C(=O)O` [Compound M10, L-3-(8-hydroxyquinolin-5-yl)alanine]: in data set [1] (FIG. 1B), the pEC50 is 5.01. The half maximal time in data set [3] (FIG. 2B) was 1050 s.

For the molecule `N[C@H](CSCc1ccc(O)c2ncccc12)C(=O)O` [Compound M11, S-(8-hydroxyquinolin-5-ylmethyl)-D-cysteine], the pEC50 in data set [1] (FIG. 1C) is 5.27.

On to `N[C@@H](CSCc1ccc(O)c2ncccc12)C(=O)O` [Compound M12, S-(8-hydroxyquinolin-5-ylmethyl)-L-cysteine], for which the pEC50 in data set [1] (FIG. 1C) is 5.22.

Turning to `CC(=O)N(O)CCCCCNC(=O)CCC(=O)N(O)CCCCCNC(=O)CCC(=O)N(O)CCCCCN` [DFO, desferrioxamine B, reference compound], the pEC50 in data set [1] (FIG. 1A), in data set [1] (FIG. 1B) and in data set [1] (FIG. 1C) was 6.30 each time.

With `CCOC(=O)N1CCN(Cc2ccc(O)c3ncccc23)CC1` [HLA16, ethyl 4-(8-hydroxyquinolin-5-ylmethyl)-1-piperazine carboxylate], the pEC50 in data set [1] (FIG. 1A) was 5.46; in data set [1] (FIG. 1B), 5.36. The half maximal time in data set [3] (FIG. 2A) is 225 s; in data set [3] (FIG. 2B) it was 220 s. Besides, the logD was 1.79 in data set [2], -1.74 in data set [2] (pH 2) and 0.39 in data set [2] (pH 12). Also, the “D in 0.01N HCl” value in data set [2] (0.01N HCl) is listed as 0.018. Further, the “D in 0.01N NaOH” value in data set [2] (0.01N NaOH) worked out at 2.44. Also, the “D in H2O” value in data set [2] (H2O) stood at 62.96.

On to `O=C(NN=Cc1ccccc1O)c1ccncc1` [SIH, salicylaldehyde isonicotinoyl hydrazone, reference compound], for which the half maximal time in data set [3] (FIG. 2A) was 125 s; in data set [3] (FIG. 2C), 100 s.

Consider Fmoc-KKC(HQ)L-NH2 [Compound M7], for which the pEC50 in data set [1] (FIG. 1C) is 5.47.
